Assay [1] is described as follows: growth suppression of beta-catenin-knockout colon cells, dose response, cell-based, HCT116, human colon tumor (AID 1045).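 Also: HCT116 colon tumor cells with beta catenin knocked out; cells exposed to compound for 60 hours.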 It is filed as functional.
Assay [2] in a line: growth suppression of PTEN-null colon cells, dose response, cell-based, HCT116 PTEN knockout (AID 1047).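 Also: HCT116 colon tumor cells with PTEN knocked out; cells exposed to compound for 60 hours before readout; potency for loss of cell viability measured by luminescence.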 It is filed as functional.
Assay [3] can be described thus: cells. Format: functional, cell-based.
A short description of assay [4]: cells. Format: functional, cell-based. This is another data set of the same source.
Assay [5] deals with T1, Calpain-2 catalytic subunit (Sus scrofa, UniProt P43367).
T1 sequence (P43367 whole entry): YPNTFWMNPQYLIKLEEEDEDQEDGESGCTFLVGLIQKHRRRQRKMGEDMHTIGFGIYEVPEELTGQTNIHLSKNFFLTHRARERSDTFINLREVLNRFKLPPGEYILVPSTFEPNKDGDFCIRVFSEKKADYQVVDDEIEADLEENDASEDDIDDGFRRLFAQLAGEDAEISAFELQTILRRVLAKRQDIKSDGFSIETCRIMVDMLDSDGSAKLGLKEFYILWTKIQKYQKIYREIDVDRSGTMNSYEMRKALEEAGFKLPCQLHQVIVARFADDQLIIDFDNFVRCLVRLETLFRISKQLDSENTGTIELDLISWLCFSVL
Briefly: pig calpain II inhibitor potency, dose response, biochemical, fluorogenic peptide substrate (AID 1420). Format: functional.

The target of assay [6] is T2, Carboxy-terminal domain RNA polymerase II polypeptide A small phosphatase 1 (Homo sapiens, UniProt Q9GZU7).
T2 sequence (Q9GZU7 whole entry): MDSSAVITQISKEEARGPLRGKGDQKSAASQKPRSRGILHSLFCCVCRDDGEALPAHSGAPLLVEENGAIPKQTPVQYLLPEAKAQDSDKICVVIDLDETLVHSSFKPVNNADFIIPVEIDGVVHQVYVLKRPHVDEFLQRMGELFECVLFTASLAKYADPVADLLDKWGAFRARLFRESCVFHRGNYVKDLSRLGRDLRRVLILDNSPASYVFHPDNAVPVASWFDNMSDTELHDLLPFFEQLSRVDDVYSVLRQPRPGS
Briefly: inhibitors of CTDSP1, concentration-response testing, biochemical assay, absorbance-based, actives from ultra-high-throughput screening (AID 540297). Format: functional.

The target of assay [7] is Voltage-dependent T-type calcium channel subunit alpha-1H (Homo sapiens, UniProt O95180). It is filed as functional.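 Also: channel activity triggered by adding a high calcium stimulation buffer.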
Sequence of Voltage-dependent T-type calcium channel subunit alpha-1H (O95180 whole entry): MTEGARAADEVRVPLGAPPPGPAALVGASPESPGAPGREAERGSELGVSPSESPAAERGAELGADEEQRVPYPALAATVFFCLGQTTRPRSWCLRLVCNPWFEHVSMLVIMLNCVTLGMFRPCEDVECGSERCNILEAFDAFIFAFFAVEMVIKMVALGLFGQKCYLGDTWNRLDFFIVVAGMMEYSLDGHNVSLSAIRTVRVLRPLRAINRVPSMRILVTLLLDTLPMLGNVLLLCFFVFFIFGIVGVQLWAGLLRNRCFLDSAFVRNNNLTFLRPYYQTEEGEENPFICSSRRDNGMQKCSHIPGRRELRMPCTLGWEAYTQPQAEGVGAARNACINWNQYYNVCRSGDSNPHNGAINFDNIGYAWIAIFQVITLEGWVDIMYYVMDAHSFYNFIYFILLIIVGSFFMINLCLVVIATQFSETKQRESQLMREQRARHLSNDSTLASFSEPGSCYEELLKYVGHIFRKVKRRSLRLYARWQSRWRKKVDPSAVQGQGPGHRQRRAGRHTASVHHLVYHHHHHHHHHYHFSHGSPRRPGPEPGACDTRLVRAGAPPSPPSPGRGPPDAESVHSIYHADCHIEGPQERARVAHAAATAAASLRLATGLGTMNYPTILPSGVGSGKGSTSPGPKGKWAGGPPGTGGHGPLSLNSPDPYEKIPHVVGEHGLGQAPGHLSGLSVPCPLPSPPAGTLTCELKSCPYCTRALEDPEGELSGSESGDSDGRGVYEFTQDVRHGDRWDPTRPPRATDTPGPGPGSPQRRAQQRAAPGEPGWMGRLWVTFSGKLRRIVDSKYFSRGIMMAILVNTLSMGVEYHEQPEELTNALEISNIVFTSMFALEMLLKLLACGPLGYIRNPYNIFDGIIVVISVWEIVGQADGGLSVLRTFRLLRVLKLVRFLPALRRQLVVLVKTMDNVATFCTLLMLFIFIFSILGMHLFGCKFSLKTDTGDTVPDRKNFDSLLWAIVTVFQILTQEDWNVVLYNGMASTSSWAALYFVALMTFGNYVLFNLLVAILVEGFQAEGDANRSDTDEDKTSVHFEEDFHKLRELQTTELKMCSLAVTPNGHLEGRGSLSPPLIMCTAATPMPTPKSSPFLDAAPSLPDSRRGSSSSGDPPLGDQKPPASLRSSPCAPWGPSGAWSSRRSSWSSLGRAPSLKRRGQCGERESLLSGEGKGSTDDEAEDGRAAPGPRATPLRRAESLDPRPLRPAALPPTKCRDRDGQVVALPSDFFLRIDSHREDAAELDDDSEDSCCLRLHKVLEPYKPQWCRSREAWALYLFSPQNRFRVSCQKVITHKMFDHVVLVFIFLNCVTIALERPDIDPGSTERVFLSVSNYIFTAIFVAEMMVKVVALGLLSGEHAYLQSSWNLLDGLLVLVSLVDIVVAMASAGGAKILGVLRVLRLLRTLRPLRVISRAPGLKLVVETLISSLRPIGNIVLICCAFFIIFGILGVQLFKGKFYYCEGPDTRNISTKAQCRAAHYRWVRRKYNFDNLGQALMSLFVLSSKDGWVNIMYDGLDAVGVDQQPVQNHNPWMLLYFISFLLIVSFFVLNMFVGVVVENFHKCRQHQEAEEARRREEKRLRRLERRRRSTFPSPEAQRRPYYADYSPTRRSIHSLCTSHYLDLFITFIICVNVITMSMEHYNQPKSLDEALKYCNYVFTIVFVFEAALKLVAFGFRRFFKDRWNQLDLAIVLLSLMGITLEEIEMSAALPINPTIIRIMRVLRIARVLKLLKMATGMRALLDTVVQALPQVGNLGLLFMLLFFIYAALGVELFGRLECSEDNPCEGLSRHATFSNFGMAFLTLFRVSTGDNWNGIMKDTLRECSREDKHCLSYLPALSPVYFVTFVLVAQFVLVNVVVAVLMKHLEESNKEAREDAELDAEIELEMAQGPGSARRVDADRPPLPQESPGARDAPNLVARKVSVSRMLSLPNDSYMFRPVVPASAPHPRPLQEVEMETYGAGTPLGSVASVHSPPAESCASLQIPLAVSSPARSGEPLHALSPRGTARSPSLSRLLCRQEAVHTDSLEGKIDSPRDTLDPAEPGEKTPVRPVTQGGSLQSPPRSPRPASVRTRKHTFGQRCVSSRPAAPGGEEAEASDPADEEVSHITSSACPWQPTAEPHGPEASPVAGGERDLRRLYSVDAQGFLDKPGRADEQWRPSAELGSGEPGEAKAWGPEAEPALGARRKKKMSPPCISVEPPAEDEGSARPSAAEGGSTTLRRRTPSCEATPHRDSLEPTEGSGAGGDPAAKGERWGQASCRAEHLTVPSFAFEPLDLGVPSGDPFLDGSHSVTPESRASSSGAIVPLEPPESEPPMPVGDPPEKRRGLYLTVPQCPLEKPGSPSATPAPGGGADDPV
The target in another assay is Cytochrome P450 3A4 (Homo sapiens, UniProt P08684).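 Also: CYP3A4 tested as one member of a cytochrome P450 panel screen.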
Sequence of Cytochrome P450 3A4 (P08684 whole entry): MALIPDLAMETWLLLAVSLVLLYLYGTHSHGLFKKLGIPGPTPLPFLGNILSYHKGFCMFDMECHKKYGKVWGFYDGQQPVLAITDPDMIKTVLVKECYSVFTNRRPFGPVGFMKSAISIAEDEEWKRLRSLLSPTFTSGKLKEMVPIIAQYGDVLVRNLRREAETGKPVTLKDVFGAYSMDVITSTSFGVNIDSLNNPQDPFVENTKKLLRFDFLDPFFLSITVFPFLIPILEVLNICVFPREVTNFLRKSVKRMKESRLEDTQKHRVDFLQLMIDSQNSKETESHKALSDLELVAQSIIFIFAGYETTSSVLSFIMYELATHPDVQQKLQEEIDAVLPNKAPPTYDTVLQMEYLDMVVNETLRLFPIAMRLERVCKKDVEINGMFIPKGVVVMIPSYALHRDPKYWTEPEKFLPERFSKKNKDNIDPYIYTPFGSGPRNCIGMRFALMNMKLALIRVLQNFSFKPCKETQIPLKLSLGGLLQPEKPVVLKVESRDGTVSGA
The target of a further assay is Cytochrome P450 2C19 (Homo sapiens, UniProt P33261). Briefly: Cytochrome panel assay with activity outcomes. Panel member name: p450-cyp2c19 Compounds with AC50 equal or less than 10 uM are considered active. Conditions: read-out: AC50. Format: functional.
Sequence of Cytochrome P450 2C19 (P33261 whole entry): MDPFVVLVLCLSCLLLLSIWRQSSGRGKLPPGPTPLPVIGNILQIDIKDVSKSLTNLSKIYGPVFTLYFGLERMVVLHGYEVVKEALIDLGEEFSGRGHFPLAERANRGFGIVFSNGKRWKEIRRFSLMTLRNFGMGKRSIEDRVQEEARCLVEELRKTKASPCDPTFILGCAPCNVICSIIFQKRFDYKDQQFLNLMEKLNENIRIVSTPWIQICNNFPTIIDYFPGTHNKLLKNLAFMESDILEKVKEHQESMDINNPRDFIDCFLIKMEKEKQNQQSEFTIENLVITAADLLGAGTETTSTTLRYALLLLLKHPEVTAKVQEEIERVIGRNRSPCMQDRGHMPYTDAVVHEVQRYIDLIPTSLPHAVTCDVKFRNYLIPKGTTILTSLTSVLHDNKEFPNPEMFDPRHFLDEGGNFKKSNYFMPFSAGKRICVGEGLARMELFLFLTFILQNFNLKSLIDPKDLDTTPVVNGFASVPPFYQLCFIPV
Assay [8] is described as follows: Luminescence Cell-Based Dose Response HTS to Identify Inhibitors of 5'UTR Stem-Loop Driven Prion Protein mRNA Translation in H4 Neuroglioblastoma Cells. [Related pubchem assays: 1827 (Project Summary), 1813 (Primary HTS)]. It is filed as functional.
Assay [9] is described as follows: inhibitors of firefly luciferase expression or activity, dose response, H4 neuroglioma cells, luminescence (AID 1990). It is filed as functional, cell-based.
A short description of assay [10]: inhibitors of SNCA 5'UTR-driven reporter translation, confirmation, H4 neuroglioma cells, luminescence (AID 1988). Format: functional, cell-based.
The nature of assay [11]: Shn3 3'UTR reporter inhibitors, dose response, cell-based, Clone20 osteoblasts, firefly luciferase, cherry-picked (AID 624132).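 Also: firefly luciferase luminescence from reporter carrying the Shn3 3'UTR in osteoblasts.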 Format: functional.
Assay [12] is described as follows: control 3'UTR Renilla luciferase suppression, dose response, counter-screen for Shn3 inhibitor project, cell-based, Clone20-Shn3RL, cherry-picked (AID 624133). It is filed as functional.
The nature of assay [13]: HEp-2 cell cytotoxicity, dose response, cytotoxicity control for RSV inhibitor project, HTS (AID 2410). It is filed as functional. Conditions: human respiratory syncytial virus.
Assay [14] can be described thus: Luminescence Cell-Based Dose Retest to Confirm Inhibitors of Cancer Stem Cells. [Related pubchem assays (depositor defined):AID2717, AID2721]. Format: functional. Conditions: Homo sapiens.
A short description of assay [15]: cells. It is filed as functional.
In assay [16] the test system is Streptococcus sp. 'group A'. As to the kind of experiment: growth inhibition of control SK(-) GAS strain, dose response, counter-screen for streptokinase expression inhibitor project, luminescence, kanamycin, BacTiterGlo, confirmation (AID 1900). It is filed as functional, organism-based.
A further assay deals with Streptococcus. Briefly: Group A Streptococcus viability loss, dose response, counter-screen for streptokinase expression inhibitor project, luminescence, BacTiterGlo (AID 1915).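 Also: potency for reduction of bacterial viability or growth.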 Format: functional, organism-based. Background: A counterscreen serves to expose hits that act by an unwanted route or on another target.

Activity calls are given as the source filed them.

For `CCOc1ccc2nc(Cl)c(C3CC(c4ccccc4)=NN3C(=O)c3cccs3)cc2c1` (stereo not drawn), the EC50 in assay [1] is 3.9 µM (active); in [2], 4.07 µM (active).
Turning to `CCCCOc1ccc(C(=O)NCC(=O)OC2CCOC2=O)cc1` (stereo not drawn), the EC50 in “cells [3]” and in “cells [4]” was > 350 µM (not active) throughout.
Turning to `CC(C)=CC(=O)OCC(=O)NC(=O)NC(C)(C)C`, in assay [5], the IC50 is given as > 50 µM (not active).
As for `O=c1c2ccccc2nc2sc(Nc3ccc(F)cc3)nn12`, the IC50 in assay [6] is 8.04 µM (active).
In the case of `O=C1c2ccccc2C(=O)N1CCCCSc1nnnn1-c1ccccc1`, in assay [5], the IC50 is 9.41 µM (not active).
The same measure, in the same setting: the same measure for `CC(C)(C)CC(C)(C)c1ccc(OCC(=O)N/N=C/c2ccc(S(=O)(=O)O)o2)cc1`: > 50 µM (not active).
In the case of `O=C1C=C(O)c2cccc(O)c2C1=O`, in [6], the IC50 is 44.5 µM (active).
For `COc1ccccc1-n1c([S-])c(C(=O)Nc2ccccc2C(F)(F)F)[n+]2ccc(C(=O)NCCO)cc12`, the IC50 in assay [5] is 6.82 µM (not active).
With `O=C(CSc1ncccc1-c1nc2ccccc2[nH]1)NCc1ccco1`, the IC50 in [6] was 10.3 µM (active).
`c1ccc(-c2ccccc2-c2nc(-c3cccnc3)no2)cc1`: the EC50 in [7] is 8.07 µM (active).
For the compound `COc1ccc(OC)c2sc(N3CCN(C(=O)c4ccc5ncsc5c4)CC3)nc12`, the EC50 in “cells [3]” and in “cells [4]” was > 350 µM (not active) throughout.
Consider `COC(=O)c1c(NC(=O)c2ccc(S(=O)(=O)N3CCOCC3)cc2)sc2c1CCN(C)C2`, for which the results for the EC50 in assay [1] and in assay [2] were 14.9 µM (active) and 23.8 µM (active), respectively.
`COc1ccc(CC(=O)Nc2ccc(-c3noc(-c4cccc(OC)c4)n3)cc2)cc1`: the AC50 is 1 µM (inconclusive) on Cytochrome P450 3A4 and 4.47 µM (inconclusive) on Cytochrome P450 2C19. Moreover, the figures for the EC50 in [1] and in [2] were 11.8 µM (active) and 14.9 µM (active), respectively.
As to `CCO/C(O)=C1\C(C)=NC2=C(C1c1ccc([N+](=O)[O-])cc1)S(=O)(=O)c1ccccc12` (stereo not drawn), the EC50 is 17.8 µM (active) in [8]; 31.4 µM (active) in assay [1]; 17.2 µM (active) in [9]; 23.9 µM (active) in assay [10]; 29 µM (active) in assay [2].
`COc1cccc(C2=CC(c3cccs3)n3nnnc3N2)c1` (stereo not drawn): in [5], the IC50 is 1.42 µM (not active).
As for `O=C1CC(c2ccccc2)CC(=O)C1=CNc1cccc(Cl)c1` (stereo not drawn), the AC50 in assay [11] is 4.94 µM (active); in [12], 19.8 µM (active).
With `O=C(Nc1ccccc1F)c1cc(-c2ccco2)nc2ccccc12`, in assay [6], the IC50 is 8.25 µM (active).
Regarding `CN(CCS(=O)(=O)c1ccc(Cl)cc1)Cc1cccnc1`, the EC50 in “cells [3]” and in “cells [4]” was > 350 µM (not active) throughout.
As to `Cc1c(Cl)cccc1NC(=S)N/N=C/c1ccccc1Cl`, the EC50 in the assay “cells [3]” and in the assay “cells [4]” was > 350 µM (not active) in each case.
Regarding `O=S(=O)(c1ccc2c(c1)CCCN2)N1CCCC2CCCCC21` (stereo not drawn), the IC50 in assay [5] is on record as 12.4 µM (not active).
Same read-out and setting: the figure for `O=C(N/N=C1/CCCc2ccccc21)c1cc([N+](=O)[O-])cc([N+](=O)[O-])c1` is 21.8 µM (not active).
Regarding `CC(=O)Nc1ccc(S(=O)(=O)N2CCc3c(Cl)cccc3C2)cc1`, in assay [7], the EC50 is 4.82 µM (active).
In the case of `COCc1ccc(C(=O)N2CCCC(CCC(=O)NCc3ccccc3F)C2)o1` (stereo not drawn), the EC50 in the assay “cells [3]” and in the assay “cells [4]” was > 350 µM (not active) each time.
Consider `CCOC(=O)C(NC(C)=O)(N1CCOCC1)C(F)(F)F` (stereo not drawn), for which the EC50 in the assay “cells [3]” and in the assay “cells [4]” was > 350 µM (not active) throughout.
Consider `Cc1cc(NC(=O)CSc2sc3c(O)cc(=O)[nH]c3c2C#N)ccc1Br`, for which, in assay [6], the IC50 was 3.74 µM (active).
Consider `O=C(/C=C/c1cccc(OCc2ccccc2)c1)c1cccnc1`, for which the EC50 in assay [1] was 3.79 µM (active); in assay [2] it was 5.59 µM (active).
As to `COc1ccc(-c2cc(C(=O)NC(Cc3cc4ccccc4[nH]3)C(=O)O)c(C)o2)cc1OC` (stereo not drawn), the IC50 in assay [5] is reported as 4.12 µM (not active).
On to `Cc1cccc(OCCCSc2nc3ccccc3[nH]2)c1`, for which the EC50 in assay [7] is 3.47 µM (active).
As for `O=C(CSc1nc2ccccc2[nH]1)NC1CCCC1`, in assay [6], the IC50 was 6.85 µM (active).
Turning to `CC(C)Sc1oc(-c2ccco2)nc1S(=O)(=O)c1ccc(F)cc1`, the EC50 in [7] is 7.9 µM (active).
For the compound `C#CCN1C(=O)C(O)(CC(=O)c2cccc(OC)c2)c2ccccc21` (stereo not drawn), the concentration for a half-maximal effect (EC50) was 19.3 µM (active) in assay [1] and 19.2 µM (active) in assay [2].
Consider `CCNc1nc(NCC)n2c(SC(C(=O)Nc3cc(Cl)cc(Cl)c3)c3ccccc3)nnc2n1` (stereo not drawn), for which the cytotoxic concentration (CC50) in assay [13] was 6.19 µM (active). Also, the EC50 is 6.35 µM (active) in assay [1] and 5.99 µM (active) in [2]. Besides, the AC50 in assay [14] is 1.59 µM (active).
On to `CCC(=O)n1nc(NCc2ccccc2OC)nc1NCc1ccccc1OC`, for which the EC50 in assay [7] was 1.68 µM (active).
As for `O=C(CCCCCNC(=O)c1ccccc1)N/N=C/c1ccco1`, the IC50 in assay [6] was 29.2 µM (active).
For the compound `O=C1N=C(Nc2ccccn2)SC1Cc1ccc(Cl)cc1` (stereo not drawn), the IC50 in the assay “cells [15]” is > 25 µM (active). For the same compound, the EC50 is 83.8 µM (active) in [16] and > 150 µM (not active) in the assay on Streptococcus.

As a reminder, the EC50 is the midpoint of the concentration-response curve. The term IC50 denotes the concentration that inhibits the measured activity by half. For orientation: AC50 means the concentration giving half of the maximal activity seen. In general, CC50 refers to the concentration at which the toxic effect on the cells reaches its halfway point.

The values are drawn from ChEMBL document CHEMBL1201862, “PubChem BioAssay data set” (2004).
